Laboratory results reported in paper PMC10953480 (RSC Medicinal Chemistry, 2024).

Assays:
Cos-7 cells = experiment: Cytotoxicity to Cos-7 cells; format: cell-based, African green monkey (Cercopithecus aethiops)
CaV2.2 = conditions: read-out: CaV2.2 IC50; whole-cell patch clamp; cited from earlier work

Row | SMILES | concentration up to which well tolerated by Cos-7 cells (Cos-7 cells) | IC50 (CaV2.2)
1 | CN(C)CCCOc1ccc(C(=O)Nc2ccccc2Oc2ccccc2)cc1 [7b] | ≤ 100 µM | 
2 | NC(N)=NCCCOc1ccc(C(=O)Nc2ccccc2Oc2ccc(F)cc2)cc1 [MONIRO-1 6a] |  | 34 µM
